Assay results published in patent publication US7105527B2, “N4-acylcytosine nucleosides for treatment of viral infections” (priority 2001, dated 2006).
Where two headings read alike, the source gives them in different places.

What was measured:
Vero cells = experiment: Cytotoxicity assay in Vero cells; type: cell-based
Protocol: (§1) The toxicity of the compounds was assessed in Vero, human PBM, CEM (human lymphoblastoid), MT-2, and HepG2 cells, as described previously (Schinazi […]., Cannon D. L., Xie […]., Smith […]. […] Cycloheximide was included as positive cytotoxic control, and untreated cells exposed to solvent were included as negative controls. The cytotoxicity IC50 was obtained from the concentration-response curve using the median effective method described previously (Chou […]. […] Belen'kii M. S. & Schinazi R. F.

MT-2 cells = experiment: Cytotoxicity assay in MT-2 cells; type: cell-based
Protocol: as §1

HIV-1LAl = experiment: Anti-HIV (in PBM cells) assay, reverse transcriptase readout; type: cell-based
Protocol: Anti-HIV-1 activity of the compounds was determined in human peripheral blood mononuclear (PBM) cells as described previously (Schinazi […]., Cannon D., Mathis R., Lloyd R. M. Jr., […]., St. Clair M., Wilson J., Furman P. A., Painter G., Choi […]. Antimicrob. Agents Chemother. 1992, 36, 2423; Schinazi […]., Cannon D., Xie […]., Smith G., Hahn E. Antimicrob. Agents Chemother. 1990, 34, 1061). Stock solutions ([…]) of the compounds were prepared in sterile DMSO and then diluted to the desired concentration in growth medium. […] Virus obtained from the cell supernatant was quantified on day 6 after infection by a reverse transcriptase assay using (rA)n.(dT)12.18 as template-primer. […] AZT was included as positive control. The antiviral EC50 and EC90 were obtained from the concentration-response curve using the median effective method described previously (Chou […]. Enzyme Regul. 1984, 22, 27-55; Belen'kii M. S. & Schinazi R. F. Antiviral Res. 1994, 25, 1-11).

[1] = system: CEM (human lymphoblastoid) cells; experiment: Cytotoxicity assay in CEM cells; type: cell-based
Protocol: as §1

human PBM cells = experiment: Cytotoxicity assay in PBM cells; type: cell-based
Protocol: as §1

HepG2 cells = experiment: Cytotoxicity assay in HepG2 cells; type: cell-based
Protocol: as §1

HIV-1RF = experiment: Anti-HIV (in MT-2 cells) assay, viral RNA accumulation; type: cell-based
Protocol: In a second antiviral testing system, the potency of the compounds was determined by measurement of viral RNA accumulation in HIV-1RF infected MT-2 cells (Bacheler L T, Paul M, Otto M J, Jadhav P K, Stone B A & Miller J A (1994) An assay for HIV RNIn infected cell lysates, and its use for rapid evaluation of antiviral efficacy. Antivir. Chem. Chemother. 5:111–121). The virus titer was established to determine the dilution producing 15 to 30 ng/RNA per well of HIV RNIn 3 days of infection. HIV-1 RNA was quantified using biotinylated capture and alkaline phosphatase-derivatized reporter oligonucleotides as described previously (Charvet A-S, Camplo M, Faury P, Graciet J C, Mourier N, Chermann J C & Kraus J L (1994) Inhibition of human immunodeficiency virus type 1 replication by phosphonoformate- and phosphonoacetate-2′,3′-dideoxy-3′-thiacytidine conjugates. J. Med. Chem. 37:2216–2223). In a third system, the effect of analogs on the replication of HIV-1NL4-3 was determined via the InterCompany Consortium consensus p24 assay as previously described (Jadhav P K & MacKay M F (1997) Cyclic urea amide: HIV-1 protease inhibitors with low nanomolar potency against both wild types and protease inhibitor resistant mutants of HIV. J. Med. Chem. 40:181–190). Recombinant viruses were recovered by transfecting the appropriate NL4-3 plasmid by lipofection. Virus stocks recovered 7 to 10 days post-transfection were titered on MT-4 cells to determine if the dilution produced 1,000 to 3,000 ng p24 in 4 days. This dilution was then used in drug susceptibility assays, where drug was added 24 h post infection of cells, and p24 quantified by ELISA 3 days later.

[2] = Cytotoxicity assay in Vero cells; type: cell-based; conditions: African green monkey, Table 2, read-out: Cytotoxicity in different cells (IC50, μM) Vero
Protocol: as §1

[3] = Cytotoxicity assay in MT-2 cells; type: cell-based; conditions: human, Table 2, read-out: Cytotoxicity in different cells (IC50, μM) MT-2
Protocol: as §1

[4] = Cytotoxicity assay in CEM cells; type: cell-based, human; conditions: human, CEM lymphoblastoid cells, Table 2, read-out: Cytotoxicity in different cells (IC50, μM) CEM
Protocol: as §1

[5] = Cytotoxicity assay in PBM cells; type: cell-based, human; conditions: human, human PBM cells, Table 2, read-out: Cytotoxicity in different cells (IC50, μM) PBM
Protocol: as §1

[6] = Cytotoxicity assay in HepG2 cells; type: cell-based; conditions: human, Table 2, read-out: Cytotoxicity in different cells (IC50, μM) HepG2
Protocol: as §1

[7] = Table 1, read-out: Cytotoxicity in different cells (IC50, μM) Vero
[8] = Table 1, read-out: Cytotoxicity in different cells (IC50, μM) MT-2
[9] = Table 1, read-out: Anti-HIV-1 activity in different cells (EC90, μM) PBM
[10] = Table 1, read-out: Cytotoxicity in different cells (IC50, μM) CEM
[11] = Table 1, read-out: Cytotoxicity in different cells (IC50, μM) PBM
[12] = Table 1, read-out: Cytotoxicity in different cells (IC50, μM) HepG2
[13] = Table 1, EC90, MT-2 cells, read-out: Anti-HIV-1 activity in different cells (EC90, μM) MT-2
[14] = Table 2, read-out: Cytotoxicity in different cells (IC50, μM) MT-2
[15] = Table 2, EC90, MT-2 cells, read-out: Anti-HIV-1 activity in different cells (EC90, μM) MT-2
[16] = Human immunodeficiency virus 1, PBMC, Table 2, read-out: Anti-HIV-1 activity in different cells (EC90, μM) PBM
[17] = Human immunodeficiency virus 1, MT2, Table 2, EC90, MT-2 cells, read-out: Anti-HIV-1 activity in different cells (EC90, μM) MT-2

| Structure (SMILES) | IC50 (Vero cells; [7]) [µM] | IC50 (MT-2 cells; [8]) [µM] | EC90 (HIV-1LAl; [9]) [µM] | IC50 [1, 10] [µM] | IC50 (human PBM cells; [11]) [µM] | IC50 (HepG2 cells; [12]) [µM] | EC90 (HIV-1RF; [13]) [µM] | IC50 [2] [µM] | IC50 [3] [µM] | EC90 (HIV-1LAl; [16]) [µM] | IC50 [4] [µM] | IC50 [5] [µM] | IC50 [6] [µM] | further results |
| --- | --- | --- | --- | --- | --- | --- | --- | --- | --- | --- | --- | --- | --- | --- |
| COc1ccc(C(=O)Nc2nc(=O)n([C@H]3CC[C@@H](CO)O3)cc2F)cc1 [Compound 17, β-D-N^4-p-Anisoyl-2′,3′-dideoxy-5-fluorocytidine] | 5.3 | 16 | 8.31 | 31.6 | 69.2 | 4.5 | 6 | – | – | – | – | – | – | – |
| O=C(Nc1nc(=O)n([C@H]2CC[C@@H](CO)O2)cc1F)c1ccccc1[N+](=O)[O-] [Compound 20, β-D-2′,3′-Dideoxy-5-fluoro-N^4-(2-nitrobenzoyl)cytidine] | > 100 | > 50 | 1.5 | > 100 | > 100 | > 100 | 0.7 | – | – | – | – | – | – | – |
| O=C(Nc1nc(=O)n([C@H]2CC[C@@H](CO)O2)cc1F)c1ccccc1 [Compound 21, β-D-N^4-Benzoyl-2′,3′-dideoxy-5-fluorocytidine] | 5.8 | 19 | 1.29 | 38.5 | 67 | 15.3 | 1.2 | – | – | – | – | – | – | – |
| Cc1ccccc1C(=O)Nc1nc(=O)n([C@H]2CC[C@@H](CO)O2)cc1F [Compound 24, β-D-2′,3′-Dideoxy-5-fluoro-N^4-o-toluoylcytidine] | 39.6 | > 50 | 1.2 | 22.5 | 20.6 | > 100 | 6.8 | – | – | – | – | – | – | – |
| O=C(Nc1nc(=O)n([C@H]2CC[C@@H](CO)O2)cc1F)c1ccco1 [Compound 29, β-D-2′,3′-Dideoxy-5-fluoro-N^4-(2-furoyl)cytidine] | 29.6 | > 50 | 1.5 | 5.7 | 16.9 | 31.1 | 0.9 | – | – | – | – | – | – | – |
| O=C(Nc1nc(=O)n([C@H]2CC[C@@H](CO)O2)cc1F)c1cccnc1 [Compound 31, β-D-2′,3′-Dideoxy-5-fluoro-N^4-(nicotinoyl)cytidine] | 28.1 | > 50 | 0.17 | 5.5 | 8.8 | 19.4 | 5.9 | – | – | – | – | – | – | – |
| CCCC(=O)Nc1nc(=O)n([C@H]2CC[C@@H](CO)O2)cc1F [Compound 34, β-D-N^4-Butyryl-2′,3′-dideoxy-5-fluorocytidine] | 5.8 | 7.2 | 1.6 | 31.6 | 17.1 | 7.6 | 0.71 | – | – | – | – | – | – | – |
| COc1cccc(C(=O)Nc2nc(=O)n([C@H]3C=C[C@@H](CO)O3)cc2F)c1 [Compound 43, β-D-N^4-m-Anisoyl-2′,3′-didehydro-2′,3′-dideoxy-5-fluorocytidine] | – | – | – | – | – | – | – | – | – | – | – | – | – | IC50 (Vero cells; Table 2, read-out: Cytotoxicity in different cells (IC50, μM) Vero): > 100 µM; IC50 (MT-2 cells; [14]): > 50 µM; EC90 (HIV-1LAl; Table 2, read-out: Anti-HIV-1 activity in different cells (EC90, μM) PBM): 2.1 µM; IC50 ([1]; Table 2, read-out: Cytotoxicity in different cells (IC50, μM) CEM): 24.6 µM; IC50 (human PBM cells; Table 2, read-out: Cytotoxicity in different cells (IC50, μM) PBM): 18.5 µM; IC50 (HepG2 cells; Table 2, read-out: Cytotoxicity in different cells (IC50, μM) HepG2): > 100 µM; EC90 (HIV-1RF; [15]): 0.34 µM |
| Cc1ccc(C(=O)Nc2nc(=O)n([C@H]3C=C[C@@H](CO)O3)cc2F)cc1 [Compound 48, β-D-2′,3′-Didehydro-2′,3′-dideoxy-5-fluoro-N^4-p-toluoylcytidine] | – | – | – | – | – | – | – | > 100 | > 50 | 0.32 | 31.9 | 13.2 | > 100 | EC90 (HIV-1RF; [17]): 0.21 µM |
| Cc1cccc(C(=O)Nc2nc(=O)n([C@H]3C=C[C@@H](CO)O3)cc2F)c1 [Compound 49, β-D-2,3′-Didehydro-2,3′-dideoxy-5-fluoro-N^4-m-toluoylcytidine] | – | – | – | – | – | – | – | 149 | > 50 | 0.7 | 34.9 | 57.1 | > 100 | EC90 (HIV-1RF; Human immunodeficiency virus 1, MT2, read-out: Anti-HIV-1 activity in different cells (EC90, μM) MT-2): 0.8 µM |
| O=C(Nc1nc(=O)n([C@H]2C=C[C@@H](CO)O2)cc1F)C1CCCC1 [Compound 57, β-D-N^4-(Cyclopentanecarbonyl)-2′,3′-didehydro-2′,3′-dideoxy-5-fluorocytidine] | – | – | – | – | – | – | – | 87.6 | > 50 | 0.4 | 19.6 | 52.9 | > 100 | EC90 (HIV-1RF; [17]): 0.51 µM |
| O=C(Nc1nc(=O)n([C@H]2C=C[C@@H](CO)O2)cc1F)C1CCCCC1 [Compound 58, β-D-N-(Cyclohexanecarbonyl)-2′ 3′-didehydro-2′,3′-dideoxy-5-fluorocytidine] | – | – | – | – | – | – | – | > 100 | > 50 | 0.6 | 11.2 | 11.7 | > 100 | EC90 (HIV-1RF; [17]): 0.38 µM |
| CCCCCCC(=O)Nc1nc(=O)n(C2C=CC(CO)O2)cc1F [Compound 59, β-D-2′,3′-Didehydro-2′,3′-dideoxy-5-fluoro-N^4-heptanoylcytidine] | – | – | – | – | – | – | – | – | – | – | – | – | – | IC50 (MT-2 cells; [14]): 6.2 µM; EC90 (HIV-1RF; [15]): 0.23 µM |
